Reference: patent publication US9073901B2, “DGAT2 inhibitors” (Eli Lilly and Company, priority 2013, dated 2015)

Experiments:
[1] = system: LDL-c, VLDL-c and TG serum concentrations; test: In Vivo Efficacy Model (LDL receptor-deficient mice); details: male LDL receptor-deficient mice, fourteen days, serum vs control group
Method: This assay measures the potency of compounds by measuring the reduction in low density lipoprotein cholesterol (LDL-c), very low density lipoprotein cholesterol (VLDL-c), and triglycerides (TG). Male, LDL receptor-deficient mice (29 weeks old, each approximately 30 g in weight) are used in this assay.
Feed the mice a standard mouse chow diet for two weeks prior to dosing. Prepare a test solution for oral gavage by suspend the compounds in acacia at 0.3, 1, and 3 mg/mL. Separate the mice into a test group and a control group. Thereafter at the first day of the third week dose the mice in the test group with the test solution for fourteen days, BID. Similarly dose the mice in the control group with just the vehicle without any of the test compound. Four hours after the last dose euthanized the mice with CO2. Immediately collect the blood via cardiac puncture. Isolate the serum to measure serum triglycerides as well as cholesterol in individual lipoprotein fractions. Separate the lipoprotein fractions by known HPLC methods. Determine the cholesterol concentration associated with each lipoprotein fraction by a colorimetric method (Roche Cholesterol/HP Reagent 11875540), using isolated lipoprotein fractions with known cholesterol concentration as standards. Results obtained at the highest dose, 30 mg/kg, BID, expressed as the percentage of change in comparison of the LDL-c, VLDL-c and TG serum concentrations of mice in the test group to those of mice n the control group.
To enable absorption of Example 2 at the 30 mg/kg dose, prepare that compound as 1:1 (w/w) dry mixture with hydroxypropyl methylcellulose prior to addition to acacia vehicle.

human DGAT2 [2] = target: T1, human DGAT2 (Homo sapiens, UniProt Q96PD7); test: Diacylglycerol Acyltransferase 2 (DGAT2) Biochemical Assay; parameters: FLAG (N); made in house; host or cells: insect SF9 cells; details: recombinant human DGAT2 (FLAG tag, SF9), 14C oleoyl-CoA, 1 hr RT; geometric mean
T1 sequence (Q96PD7 1-388): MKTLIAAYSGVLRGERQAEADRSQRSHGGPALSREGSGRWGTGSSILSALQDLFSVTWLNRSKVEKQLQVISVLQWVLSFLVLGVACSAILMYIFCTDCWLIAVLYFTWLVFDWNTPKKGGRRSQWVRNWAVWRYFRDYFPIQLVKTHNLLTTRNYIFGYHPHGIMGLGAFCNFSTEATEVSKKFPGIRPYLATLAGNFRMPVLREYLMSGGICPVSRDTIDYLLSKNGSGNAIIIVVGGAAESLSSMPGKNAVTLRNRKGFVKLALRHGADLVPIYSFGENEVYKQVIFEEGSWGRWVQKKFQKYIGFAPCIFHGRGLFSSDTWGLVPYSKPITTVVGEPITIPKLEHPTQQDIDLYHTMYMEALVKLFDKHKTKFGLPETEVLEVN
Method: Diacylglycerol Acyltransferase 2 (DGAT2) Biochemical Assay
The in vitro inhibitory activity of compounds against human DGAT2 is evaluated in this assay. The assay uses recombinant human DGAT2 with a FLAG tag at the amino terminus, expressed in genetically engineered insect SF9 cells, and purified through affinity chromatography.
DGAT2 catalyzes transfer of an acyl moiety from acyl-Coenzyme A onto diacylglycerol, to form triacylglycerol. In this particular embodiment of the assay oleate is used as the acyl moiety that is transferred. To facilitate miscibility of all lipid components, all lipids used in the assay contain oleyl moiety as the only acyl group. […]
Mix SUV suspensions and compound solution with other components of the assay to achieve the following concentration of individual ingredients: TrisHCl (pH 7.5, 150 mM), sucrose (250 mM), MgCl2 (5 mM), dithiothreitol (DTT) (0.5 mM), oleoyl coenzyme A (oleoyl-CoA) (12 μM), 1-^14C oleoyl coenzyme A (oleyl-CoA-^14C) (8 μM), dioleoyl glycerol (DOG) (0.6 mM), and dioleoyl phosphatidylcholine (DOPC) (1.4 mM), DGAT2 protein (0.5 nM), DMSO (1%, v/v), with test compound concentration within a 1 nM to 100 μM range, in 30 μl total volume. […] Measure the radioactivity using a Perkin-Elmer TopCount instrument. […] Calculate the degree of inhibition of DGAT2 by measuring the radioactivity at 10 different concentrations for each compound. […]

plasma triglycerides = test: In Vivo Pharmacodynamic Assay (reduction in plasma triglycerides); details: Mus musculus, po, male C57BL6 mice, gavage 0.1 to 10 mg/kg with 3 mg/kg DGAT1 inhibitor, tyloxapol
Method: In Vivo Pharmacodynamic Assay
This assay measures the potency of compounds by measuring the reduction in plasma triglycerides in mice treated with the test compounds compared to control animals that are treated only with the vehicle solution. Male, C57BL6 mice (10-11 weeks old, each approximately 22 g in weight) are used in this assay.
Triglycerides synthesized in the liver are secreted into circulation as a component of the Very Low Density Lipoprotein (VLDL). To prevent degradation of triglycerides in circulation by the Lipoprotein Lipase (LPL), this assay uses IV injection of a detergent, tyloxapol, which inhibits activity of LPL. Since another enzyme, DGAT1, participates in the synthesis of liver triglyceride, a saturating dose of a DGAT1 inhibitor (sodium{trans-4-[4-(4-amino-7,7-dimethyl-7H-pyrimido[4,5-b][1,4]oxazin-6-yl)phenyl]cyclohexyl}acetate, IUPAC ACDLABS naming convention, see Dow et al. Bioorg. & Med. Chem., (2011) 21(20), 6122-6128) is also used in this assay. […]
Collect the blood via cardiac puncture into tube containing the anti-coagulant EDTA. […] Freeze the plasma samples on dry ice until they are to be analyzed. […] Reduction in total triglycerides in the test mice is calculated relative to the concentration of triglycerides in the control mice.

human DGAT2 [3] = target: T1, human DGAT2; test: Diacylglycerol Acyltransferase 2 (DGAT2) Cell-Based Assay (HepG2, 13C18-oleate incorporation into triolein); parameters: This assay uses human hepatoma cell-line, HepG2, as a source of acyltransferase activity; endogenous in cells; host or cells: HepG2 (human hepatoma); details: HepG2 cells, 13C18-oleate incorporation into triolein normalized to POPC; geometric mean
Method: Diacylglycerol Acyltransferase 2 (DGAT2) Cell-Based Assay
The inhibitory activity of compounds against human DGAT2 in a cell environment is evaluated in this assay. This assay uses human hepatoma cell-line, HepG2, as a source of acyltransferase activity.
HepG2 cell line is a commonly used model for metabolic reactions that occur in human hepatocytes in vivo. Synthesis of triglyceride in this cell line is followed by measuring incorporation of isotopically labeled oleate into triolein (a triglyceride with 3 oleoyl moieties).
Dispense the HepG2 cells into a 96-well microplate, which has been previously coated with Poly-D-lysine, in an amount of 50,000 cells/well in 100 μL Minimal Essential Media (MEM) with 10% Fetal Bovine Serum (FBS). Incubate the cells for 16 hr at 37° C. Replace the cell culture medium with MEM containing 2% Bovine Serum Albumin Dissolve the test compound in 0.5% DMSO and prepare serial dilutions in half-log increments. Add the serially diluted test compound into separate wells. Incubate for 0.5 hr at 37° C. Thereafter replace the cell culture medium with a medium of the same composition, but which includes 50 μM ^13C18-oleate and 300 μM hydropropyl-β-cyclodextrine. Incubate for an additional 4 hr at 37° C. Discard the cell culture medium by flipping the microplate over thereby draining the wells and then soaking up any residual media from the wells with a paper towel. […]

liver fat content = details: therapy with lomitapide; cited from earlier work
[4] = 30 mg/kg BID, compound as 1:1 (w/w) dry mixture with hydroxypropyl methylcellulose in acacia
[5] = 30 mg/kg BID oral gavage in acacia

Row | SMILES | % change LDL-c [1, 4] | % change Triglycerides [1, 4] | % change VLDL-c [1, 4] | IC50 (human DGAT2 [2]) | ED50 (plasma triglycerides) | IC50 (human DGAT2 [3]) | increase in the liver fat content (liver fat content) | % change LDL-c [1, 5] | % change Triglycerides [1, 5] | % change VLDL-c [1, 5]
1 | Cc1nc(CNc2ncc(Cl)cn2)cc(Oc2ccc(CS(N)(=O)=O)cc2)n1 [Example 2] | −55% | −72% | −82% | 120 nM | 0.27 mg/kg | 150 nM |  |  |  | 
2 | O=C(NC1CCN(CCCCC2(C(=O)NCC(F)(F)F)c3ccccc3-c3ccccc32)CC1)c1ccccc1-c1ccc(C(F)(F)F)cc1 [lomitapide] |  |  |  |  |  |  | 8 fold |  |  | 
3 | CNS(=O)(=O)Cc1ccc(Oc2cc(CNc3ncc(Cl)cn3)nc(C)n2)cc1 [Example 1, 1-[4-[6-[[(5-Chloropyrimidin-2-yl)amino]methyl]-2-methyl-pyrimidin-4-yl]oxyphenyl]-N-methyl-methanesulfonamide] |  |  |  | 91 nM | 0.29 mg/kg | 150 nM |  | −51% | −63% | −75%
